“And” between values parts separate entries of the source, which are not always exact repeats. Equal entries are not always repeated. Positions of bridges follow the written chain, without caps; N, C: chain ends. Non-standard residues stand in square brackets, D forms with d. Residues, ends and D or L forms follow the SMILES beside them. hArg = N=C(N)NCCCC[C@H](N)C(=O)O; Mpa = O=C(O)CCS
Legend:
brain tissue = experiment: Individual peptide variants of A3 on phage, brain selectivity index vs T7-lacZ; format: in vivo, FVB or BALB/c mice; conditions: 2 hours circulation; for Brain Targeting Activity: 0.5-1×10^10 pfu co-injected with T7-lacZ; for Selectivity index (FVB female) / Selectivity index (BALB/C mice): brain tissue; for Selectivity index (FVB female): FVB female mice
Experimental: In this example, various individual peptide variants of A3 were tested in vivo for their ability to target brain or other tissues. […] The phage contents of each organ were determined by plaque assay in the presence of X-gal (500 μg/mL) in top agar.
Thus, selectively indices of less than 10 are considered low, those between 10 and […] are considered moderate and those over 100 are considered high.

[1] = system: platelets adhering to the pial vasculature; experiment: Intravital microscopy of platelet adhesion to pial vessels, LPS-induced model of sepsis
Experimental: The effect of the A3 mimetic of blood cell adhesion to brain vasculature was assessed by intravital microscopy. Platelets or leukocytes were fluorescently labeled and then the interaction of the labeled cells with the vascular endothelium imaged and analyzed pre and post the addition of various compounds. Platelets were isolated from blood of source animals by differential centrifugation at 200 g for 10 minutes, to pellet erythrocytes and leukocytes. The supernatant, designated platelet-rich plasma contained less than 0.5% leukocytes as determined by the number of DAPI-positive nucleated cells. The platelets were pelleted by spinning at 500 g, resuspended in Tyrode's buffer and incubated for 20 min with 5-,-6-carboxyfluorescein diacetate, succinimidyl ester (CFDA, or CFSE). 1×10^8 platelets in 0.1 ml were injected slowly over 5 minutes via a carotid catheter into anesthetized mice. […] Platelet rolling and adhesion was recorded for off-line analysis onto videotape or onto hard-drive of the computer via an intensified camera (Cascade, Roper Scientific) on a Leica DM-FSA upright microscope. […] Leukocytes are fluorescence-labeled in vivo by injecting Rhodamine 6G via a carotid catheter and analyzing the movement of the labeled cells on brain endothelium.
For the platelet studies a known antagonist of platelet-platelet interactions, Integrilin™ (Cor Therapeutics) was also evaluated. […]

brain [2] = experiment: Head to head comparison of CAGAXCY variants (L5, N5, M5) vs control lacZ phage; format: in vivo; conditions: 6 hours after administration vs 2 hours
brain [3] = experiment: CX4CY phage library, one round of in vivo panning to brain; design: species or system BALB/c mice; conditions: 4 hrs post phage injection
Experimental: A CX4CY library was prepared and tested. 1×10^10 pfu of the library phage were injected into 6 BALB/c mice (3 mice/time point). At 30 min and 4 hr post-injection, brain was harvested and processed as described above. Similar numbers of plaques were picked individually, and the insert sequence amplified by PCR and sequenced. Alignment analysis of the sequence data was performed with a version of Clustral/W.

[4] = system: brain, lung, liver, kidney, blood and spleen; experiment: Pharmacokinetic (PK) analysis of T7-CAGALCY and T7-lacZ phage, plaque assay; format: in vivo, FVB female mice
Experimental: A3-T7 was amplified in the host strain BLT-5615 in the presence of 1 mM IPTG and purified. T7-lacZ phage were amplified by large scale plating on LB plates. The plates were incubated at 25° C. overnight, and phage were eluted with phage extraction buffer (20 mM Tris-HCl, pH 8.0, 100 mM NaCl, 6 mM MgSO4) overnight at 4° C. with gentle rocking. The extracted phage were pooled and purified. In the PK study, in paragraph A below, three mice were used per time point, co-injected with 1×10^10 pfu of each phage. Time points were 2 min, 10 min, 30 min, 1 hr, 2 hr, 4 hr, 6 hr, 12 hr, and 24 hr.
Mice were anesthetized with Avertin 2-4 minutes before the scheduled harvest time (the mice assigned to the 2 minute time-point were anesthetized prior to administration of the phage). The brain, lung, liver, kidney, blood and spleen were harvested at 2 min, 10 min, 30 min, 1 hr, 2 hr, 4 hr, 6 hr, 12 hr, and 24 hr. The phage contents in each organ were determined by plaque assay in the presence of X-gal in top agar.

brain [5] = experiment: kSAR: co-injection of all 20 CAGAXCY (position 5) phage variants, sequence frequency in brain; format: in vivo, BALB/c mice
Experimental: To determine the optimum amino acid for position 5, all 20 variants at this position were injected. For co-injection of all 20 variants of CAGAXCY phage, individual phage were grown up and titered. Equivalent amounts of each phage type were added to PBS and 200 μL dose of the mixture was injected into 3 BALB/c mice per group (two time points of 30 minutes and 4 hours were studied, total of 6 mice). At 30 min and 4 hrs post injection, the mice were anesthetized, perfused and blood and brain were harvested. Aliquots of both the initial phage pool used for dosing as well as brain tissue samples were plated out, and approximately 100 individual plaques from each set were amplified by PCR using the T7 Super up primer method and sequenced using a CEQ 2000XL sequencer (Beckman Coulter, Calif.).
A total of 107 individual phage from the initial mixture used for dosing were sequenced to verify the relative abundance of the individual phage within the administered dose and these were compared with the relative frequency of the different phage recovered from brain after 30 minutes or 4 hours of circulation. There was a marked and rapid shift in frequency even by 30 minutes, where there was a marked enrichment of phage expressing N at the X5 position, (from 7% in the initial pool to 49%), M (from 5% to 24%) or L (2.8% to 12%) at 30 minutes.

brain [6] = experiment: Co-injection of A3 and control T7-LacZ phage, plaque assay of tissues and blood; format: in vivo, BALB/c mice; conditions: 10^9 pfu of each phage, tail vein, 1 hour circulation
Experimental: Plaque assays were used to determine the relative amounts of phage contained in blood and brain. For the blood assays, 300 μl of blood was drawn into 300 μl of 100 mM sodium citrate before perfusion. Plasma was recovered and saved for plaque assay. The phage content was assessed by mixing aliquots of the tissue homogenate or plasma with the bacterial BLT-5615 host, then plating on agar plates.
40 μl of 40 mg/ml of X-gal in DMF was added into 3 ml of top agar in each plate.
A mixture of the two phage (10^9 pfu of each phage) was injected into the tail veins of non-anesthetized BALB/c mice. […] Another measure of selective retention is to compare target organ to blood levels of the test phage.

[7] = system: brain, lung, liver, kidney, colon; experiment: Effect of dose on the brain-targeting properties of T7-CAGALCY (SI, SPI); format: in vivo, FVB female mice; conditions: for Organ Specificity Index (SPI), ratio of SI brain to colon / Organ Specificity Index (SPI), ratio of SI brain to kidney / Organ Specificity Index (SPI), ratio of SI brain to liver / Organ Specificity Index (SPI), ratio of SI brain to lung / Selectivity index (SI), brain / Selectivity index (SI), colon / Selectivity index (SI), kidney / Selectivity index (SI), liver / Selectivity index (SI), lung: 4 hours; for Organ Specificity Index (SPI), ratio of SI brain to colon / Organ Specificity Index (SPI), ratio of SI brain to kidney / Organ Specificity Index (SPI), ratio of SI brain to liver / Organ Specificity Index (SPI), ratio of SI brain to lung: mean; for Selectivity index (SI), brain / Selectivity index (SI), colon / Selectivity index (SI), kidney / Selectivity index (SI), liver / Selectivity index (SI), lung: mean ± SEM
Experimental: In the dose response study, in paragraph B below, three mice were used per dose, co-injected with 1×10^7, 1×10^8, 1×10^9, 1×10^10, 1×10^11 pfu of each phage.
For each dose, three mice were injected. Four hours after phage administration, phage were recovered from the brain, lung, liver, kidney, colon, and blood.
This was measured as A3-T7 phage yield per gram tissue from various organs normalized by the yield/g tissue of the control phage.

CAGALSY
Brain Targeting Activity (brain tissue): brain targeting capacity is lost and No | Selectivity index (FVB female) (brain tissue): 1.9

CAGGLCY
Brain Targeting Activity (brain tissue): No | Brain Targeting Activity (brain tissue; listed as A4G): loss of brain targeting activity | Selectivity index (FVB female) (brain tissue): 0.9

CAGALC
Brain Targeting Activity (brain tissue): No | Selectivity index (FVB female) (brain tissue): 1.5

CPADCY [reference compound]
Brain Targeting Activity (brain tissue): No | Selectivity index (FVB female) (brain tissue): 0.3

CALCY
Brain Targeting Activity (brain tissue): No | Selectivity index (FVB female) (brain tissue): 0.8

CDITEYC [reference compound]
Brain Targeting Activity (brain tissue): No | Selectivity index (BALB/C mice) (brain tissue): 1 | Selectivity index (FVB female) (brain tissue): 0.4

YCDAPC [reference compound]
Brain Targeting Activity (brain tissue): No | Selectivity index (FVB female) (brain tissue): 0.7

N=C(N)NCCCC[C@@H]1NC(=O)CCSSC[C@@H](C(N)=O)NC(=O)[C@@H]2CCCN2C(=O)[C@H](Cc2c[nH]c3ccccc23)NC(=O)[C@H](CC(=O)O)NC(=O)CNC1=O [Integrilin] ([Mpa][hArg]GDWPC-NH2; disulfide 1-7)
platelet adhesion to pial vessels ([1]; 4 hours after i.p. 10 μg LPS, Integrilin at 40 mg/kg): slight antagonistic effect | DIC and adhesion of microaggregates to the brain vasculature ([1]; higher doses than 40 mg/kg): exacerbated DIC and adhesion of microaggregates to the brain vasculature

CAGDSMCY [reference compound]
Brain Targeting Activity (brain tissue): negative and No | Selectivity index (BALB/C mice) (brain tissue): 0.9

CGFDMPC [reference compound]
Brain Targeting Activity (brain tissue): No | Selectivity index (FVB female) (brain tissue): 0.5

CLCY
Brain Targeting Activity (brain tissue): No | Selectivity index (FVB female) (brain tissue): 3.5

CAGALCY [T7-A3]
change of brain SI values (brain [2]): increase further | enrichment among 83 sequences sampled from the brain (brain [3]): no enriched phage | ratio of yield/g brain and yield/mL blood between T7-A3 and T7-lacZ phage ([4]; 2 hr): 250 | Selectivity index (SI), brain ([4]; 2 hr, 1×10^10 pfu): 51 | Selectivity index (SI), lung ([4]; 2 hr, 1×10^10 pfu): 16.0 | selectivity index (SI), spleen ([4]; 2 hr, 1×10^10 pfu): 1.98 | relative specificity for brain (SI brain compared to lung) ([4]; 4 hour time point): 6 fold | ratio of yield/g brain and yield/mL blood between T7-A3 and T7-lacZ phage ([4]; 4 hr): 1200 | Selectivity index (SI), brain ([4]; 4 hr, 1×10^10 pfu): 280 and 288 | Selectivity index (SI), liver ([4]; 4 hr, 1×10^10 pfu): 4.62 | Selectivity index (SI), lung ([4]; 4 hr, 1×10^10 pfu): 54.8 and 47 | selectivity index, brain ([4]; difference of half-lives in blood taken into account): over 100 | Brain Targeting Activity (brain tissue): Yes | Selectivity index (BALB/C mice) (brain tissue): 1000 | Selectivity index (FVB female) (brain tissue): >200 | frequency of phage variant recovered from brain (brain [5]; 30 minutes after injection of 20-variant mixture): 12% | frequency of phage variant recovered from brain (brain [5]; 4 hours after injection of 20-variant mixture): 7.5% | brain to blood ratio after normalization to control phage (brain [6]): > 100 fold | Organ Specificity Index (SPI), ratio of SI brain to colon ([7]; 1 × 10^7 pfu): 4.57 | Organ Specificity Index (SPI), ratio of SI brain to kidney ([7]; 1 × 10^7 pfu): 1.92 | Organ Specificity Index (SPI), ratio of SI brain to liver ([7]; 1 × 10^7 pfu): 2.34 | Organ Specificity Index (SPI), ratio of SI brain to lung ([7]; 1 × 10^7 pfu): 4.23 | Selectivity index (SI), brain ([7]; 1 × 10^7 pfu): 13.2 | Selectivity index (SI), colon ([7]; 1 × 10^7 pfu): 1.8 ± 1.1 | Selectivity index (SI), kidney ([7]; 1 × 10^7 pfu): 5.0 ± 3.1 | Selectivity index (SI), liver ([7]; 1 × 10^7 pfu): 6.3 ± 5.4 | Selectivity index (SI), lung ([7]; 1 × 10^7 pfu): 1.9 ± 0.8 | Organ Specificity Index (SPI), ratio of SI brain to colon ([7]; 1 × 10^8 pfu): 2.82 | Organ Specificity Index (SPI), ratio of SI brain to kidney ([7]; 1 × 10^8 pfu): 2.08 | Organ Specificity Index (SPI), ratio of SI brain to liver ([7]; 1 × 10^8 pfu): 3.27 | Organ Specificity Index (SPI), ratio of SI brain to lung ([7]; 1 × 10^8 pfu): 0.65 | Selectivity index (SI), brain ([7]; 1 × 10^8 pfu): 10.5 and 10 | Selectivity index (SI), colon ([7]; 1 × 10^8 pfu): 4.3 ± 1.8 | Selectivity index (SI), kidney ([7]; 1 × 10^8 pfu): 5.4 ± 1.3 | Selectivity index (SI), liver ([7]; 1 × 10^8 pfu): 4.2 ± 1.9 | Selectivity index (SI), lung ([7]; 1 × 10^8 pfu): 14.3 ± 6.8 | Organ Specificity Index (SPI), ratio of SI brain to colon ([7]; 1 × 10^9 pfu): 8.87 | Organ Specificity Index (SPI), ratio of SI brain to kidney ([7]; 1 × 10^9 pfu): 3.27 | Organ Specificity Index (SPI), ratio of SI brain to liver ([7]; 1 × 10^9 pfu): 26 | Organ Specificity Index (SPI), ratio of SI brain to lung ([7]; 1 × 10^9 pfu): 3.23 | Selectivity index (SI), brain ([7]; 1 × 10^9 pfu): 121 | Selectivity index (SI), colon ([7]; 1 × 10^9 pfu): 18.3 ± 6.8 | Selectivity index (SI), kidney ([7]; 1 × 10^9 pfu): 47.3 ± 18.5 | Selectivity index (SI), liver ([7]; 1 × 10^9 pfu): 8.2 ± 3.1 | Selectivity index (SI), lung ([7]; 1 × 10^9 pfu): 47.3 ± 12.5 | Organ Specificity Index (SPI), ratio of SI brain to lung ([7]; 1 × 10^10 pfu): 4.03 | Selectivity index (SI), brain ([7]; 1 × 10^10 pfu): 150 | Selectivity index (SI), colon ([7]; 1 × 10^10 pfu): 7.9 ± 1.2 | Selectivity index (SI), kidney ([7]; 1 × 10^10 pfu): 20.7 ± 6.4 | Selectivity index (SI), liver ([7]; 1 × 10^10 pfu): 8.9 ± 5.1 | Selectivity index (SI), lung ([7]; 1 × 10^10 pfu): 40.7 ± 9.2 | Organ Specificity Index (SPI), ratio of SI brain to lung ([7]; 1 × 10^11 pfu): 3.3 | Selectivity index (SI), brain ([7]; 1 × 10^11 pfu): 118 ± 47.3 | Selectivity index (SI), colon ([7]; 1 × 10^11 pfu): 5.3 ± 1.6 | Selectivity index (SI), kidney ([7]; 1 × 10^11 pfu): 10.3 ± 1.7 | Selectivity index (SI), liver ([7]; 1 × 10^11 pfu): 4.2 ± 0.4 | Selectivity index (SI), lung ([7]; 1 × 10^11 pfu): 35.3 ± 11.0 | SPI values for lung, liver, kidney or colon compared to the other organs ([7]; all doses tested): lower than 10

— patent US20040110681A1, “Method to identify targeting molecules” (priority 2002, published 2004)
